Target: T1, CFTR (F508del/MF-HBE cells) (Homo sapiens, UniProt P13569, DEL508-508)
T1 construct: human bronchial epithelial (HBE) cells derived from CF subjects heterozygous for F508del and a minimal function CFTR mutation (F508del/MF-HBE); endogenous in cells; host or cells: Primary human bronchial epithelial cells from CF subjects (F508del/MF genotype), differentiated at an air-liquid interface
Assay: Ussing chamber assay of CFTR-mediated short-circuit currents, Assay A (0.1 μM to 25 μM, 6 concentrations)
Format: cell-based
Conditions: with 33 nM potentiator and 18 μM Tezacaftor, 20% human serum; for Emax: 18-24 hours, read-out: A Max activity (%)
Method: Ussing chamber experiments were performed using human bronchial epithelial (HBE) cells derived from CF subjects heterozygous for F508del and a minimal function CFTR mutation (F508del/MF-HBE) and cultured as previously described (Neuberger T, Burton B, Clark H, Van Goor F Methods Mol Biol 2011:741:39-54). After four days the apical media was removed, and the cells were grown at an air liquid interface for >14 days prior to use.
To isolate the CFTR-mediated short-circuit (ISC) current, F508del/MF-HBE grown on Costar® Snapwell™ cell culture inserts were mounted in an Ussing chamber and the transepithelial ISC was measured under voltage-clamp recording conditions (Vhold=0 mV) at 37° C. The basolateral solution contained (in mM) 145 NaCl, 0.83 K2HPO4, 3.3 KH2PO4, 1.2 MgCl2, 1.2 CaCl2, 10 Glucose, 10 HEPES (pH adjusted to 7.4 with NaOH) and the apical solution contained (in mM) 145 NaGluconate, 1.2 MgCl2, 1.2 CaCl2, 10 glucose, 10 HEPES (pH adjusted to 7.4 with NaOH) and 30 μM amiloride to block the epithelial sodium channel. Forskolin (20 μM) was added to the apical surface to activate CFTR, followed by apical addition of a CFTR inhibitor cocktail consisting of BPO, GlyH-101, and CFTR inhibitor 172 (each at 20 μM final assay concentration) to specifically isolate CFTR currents. The CFTR-mediated ISC (μA/cm^2) for each condition was determined from the peak forskolin response to the steady-state current following inhibition.
The activity of the CFTR corrector compounds on the CFTR-mediated ISC was determined in Ussing chamber studies as described above. The F508del/MF-HBE cell cultures were either incubated with the corrector compounds at a range of concentrations in combination with 33 nM (6R,12R)-17-amino-12-methyl-6,15-bis(trifluoromethyl)-13,19-dioxa-3,4,18-triazatricyclo[12.3.1.12,5]nonadeca-1(18),2,4,14,16-pentaen-6-ol and 18 μM Tezacaftor or were incubated with the corrector compounds at a single fixed concentration of 1 μM in combination with 44 nM (6R,12R)-17-amino-12-methyl-6,15-bis(trifluoromethyl)-13,19-dioxa-3,4,18-triazatricyclo[12.3.1.12,5]nonadeca-1(18),2,4,14,16-pentaen-6-ol and 18 μM Tezacaftor for 18-24 hours at 37° C. and in the presence of 20% human serum. The concentration of corrector compounds with 44 nM or 33 nM (6R,12R)-17-amino-12-methyl-6,15-bis(trifluoromethyl)-13,19-dioxa-3,4,18-triazatricyclo[12.3.1.12,5]nonadeca-1(18),2,4,14,16-pentaen-6-ol and 18 μM Tezacaftor during the 18-24 hours incubations was kept constant throughout the Ussing chamber measurement of the CFTR-mediated ISC to ensure compounds were present throughout the entire experiment. The efficacy and potency of the putative F508del correctors was compared to that of the known Vertex corrector, (14S)-8-[3-(2-{Dispiro[2.0.2.1]heptan-7-yl}ethoxy)-1H-pyrazol-1-yl]-12,12-dimethyl-2λ^6-thia-3,9,11,18,23-pentaazatetracyclo[17.3.1.111,14.05,10]tetracosa-1(22),5,7,9,19(23),20-hexaene-2,2,4-trione, in combination with 18 μM Tezacaftor and 1 μM Ivacaftor.
• Assay A: 0.1 μM to 25 μM, 6 concentrations • Assay B: 0.00001 μM to 25 μM, 12 concentrations • Assay C: 0.026 μM to 25 μM, 6 concentrations • Assay D: Activity at single concentration of 1 μM

T1 sequence (P13569 with tags, fused parts or gaps DEL508-508): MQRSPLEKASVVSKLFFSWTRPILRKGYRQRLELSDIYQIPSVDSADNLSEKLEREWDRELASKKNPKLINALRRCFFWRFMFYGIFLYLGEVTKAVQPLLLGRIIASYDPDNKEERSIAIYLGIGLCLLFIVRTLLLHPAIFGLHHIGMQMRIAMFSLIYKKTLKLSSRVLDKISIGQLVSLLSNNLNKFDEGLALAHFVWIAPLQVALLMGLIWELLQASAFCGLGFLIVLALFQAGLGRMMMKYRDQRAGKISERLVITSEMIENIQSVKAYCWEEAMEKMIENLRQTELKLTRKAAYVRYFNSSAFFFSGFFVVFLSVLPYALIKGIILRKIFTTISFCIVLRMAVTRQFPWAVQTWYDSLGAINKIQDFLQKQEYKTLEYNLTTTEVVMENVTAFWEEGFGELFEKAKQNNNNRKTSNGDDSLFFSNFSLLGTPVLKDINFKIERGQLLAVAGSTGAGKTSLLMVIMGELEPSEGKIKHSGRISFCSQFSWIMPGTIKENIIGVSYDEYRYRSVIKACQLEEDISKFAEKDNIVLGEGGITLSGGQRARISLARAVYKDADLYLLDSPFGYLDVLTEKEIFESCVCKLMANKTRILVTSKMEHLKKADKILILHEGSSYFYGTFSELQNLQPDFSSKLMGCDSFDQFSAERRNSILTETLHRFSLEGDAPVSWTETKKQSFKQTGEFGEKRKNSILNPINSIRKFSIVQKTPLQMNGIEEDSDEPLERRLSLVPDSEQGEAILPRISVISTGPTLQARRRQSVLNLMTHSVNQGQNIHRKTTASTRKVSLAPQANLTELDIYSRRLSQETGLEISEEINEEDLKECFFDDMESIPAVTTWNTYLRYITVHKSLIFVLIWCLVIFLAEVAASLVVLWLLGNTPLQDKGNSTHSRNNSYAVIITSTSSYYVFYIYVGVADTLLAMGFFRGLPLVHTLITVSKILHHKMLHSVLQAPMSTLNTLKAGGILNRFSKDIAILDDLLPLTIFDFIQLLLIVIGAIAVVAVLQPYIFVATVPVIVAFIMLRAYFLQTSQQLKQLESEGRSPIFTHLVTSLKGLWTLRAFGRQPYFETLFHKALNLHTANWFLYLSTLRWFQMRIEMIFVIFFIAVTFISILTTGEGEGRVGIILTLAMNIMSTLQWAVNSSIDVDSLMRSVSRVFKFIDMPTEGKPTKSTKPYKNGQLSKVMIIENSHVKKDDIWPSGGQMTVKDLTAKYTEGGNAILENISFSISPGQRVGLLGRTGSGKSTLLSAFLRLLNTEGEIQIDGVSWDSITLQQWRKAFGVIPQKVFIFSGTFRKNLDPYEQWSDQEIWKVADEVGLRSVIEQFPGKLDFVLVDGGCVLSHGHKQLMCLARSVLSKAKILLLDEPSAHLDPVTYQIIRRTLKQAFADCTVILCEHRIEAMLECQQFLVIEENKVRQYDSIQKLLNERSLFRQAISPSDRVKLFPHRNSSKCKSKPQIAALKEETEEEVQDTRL

Emax [%]	EC50 [nM]	SMILES
> 60	< 1000	Cc1cccc(C)c1-c1cc2nc(n1)NS(=O)(=O)c1cccc(c1)C(=O)N(Cc1cn3cccc(N)c3n1)[C@H](CC(C)(C)C)CO2 [III-12]
> 60	< 1000	Cc1cccc(C)c1-c1cc2nc(n1)NS(=O)(=O)c1cccc(c1)C(=O)N(Cc1nc3c(cc1F)cc(C(C)C)n3C)[C@H](CC1(C)CC1)CO2 [Compound I-80]
> 60	< 1000	Cc1cccc(C)c1-c1cc2nc(n1)NS(=O)(=O)c1cccc(c1)C(=O)N(Cc1nc3c(cc1F)cc(C(C)C)n3C)[C@@H](COC1CCC1)CO2 (stereo in doubt) [Compound I-84]
> 60	< 1000	Cc1cccc(C)c1-c1cc2nc(n1)NS(=O)(=O)c1cccc(c1)C(=O)N(Cc1cn3ccc(C(C)C)cc3n1)[C@H](CC(C)(C)C)CO2 [III-1, (11R)-6-(2,6-dimethylphenyl)-11-(2,2-dimethylpropyl)-12-[(7-isopropylimidazo[1,2-a]pyridin-2-yl)methyl]-2,2-dioxo-9-oxa-2λ^6-thia-3,5,12,19-tetrazatricyclo[12.3.1.14,8]nonadeca-1(18),4(19),5,7,14,16-hexaen-13-one]
> 60	< 1000	Cc1cccc(C)c1-c1cc2nc(n1)NS(=O)(=O)c1cccc(c1)C(=O)N(Cc1cnc3oc(C4CC4)cc3n1)[C@H](CCC(C)(C)F)CO2 [Compound I-107]
> 60	< 1000	Cc1cccc(C)c1-c1cc2nc(n1)NS(=O)(=O)c1cccc(c1)C(=O)N(Cc1cnc3cc(C(C)C)n(C)c3n1)[C@H](CC1C3(CC3)C13CC3)CO2 [Compound I-100]
> 60	< 1000	Cc1cccc(C)c1-c1cc2nc(n1)NS(=O)(=O)c1cccc(c1)C(=O)N(Cc1nc3cc(C(C)C)oc3cc1F)[C@@H](COC1CCC1)CO2 (stereo in doubt) [Compound I-95]
> 60	< 1000	Cc1cccc(C)c1-c1cc2nc(n1)NS(=O)(=O)c1cccc(c1)C(=O)N(Cc1cnc3c(n1)CC(C(C)C)O3)[C@H](CC1(C)CC1)CO2 (single isomer, unassigned) [III-13]
> 60	< 1000	Cc1cccc(C)c1-c1cc2nc(n1)NS(=O)(=O)c1cccc(c1)C(=O)N(Cc1cnc3oc(C(C)C)c(C)c3n1)[C@@H](COC1CCC1)CO2 (stereo in doubt) [Compound I-93]
30 to 60	1000 to 3000	Cc1cccc(C)c1-c1cc2nc(n1)NS(=O)(=O)c1cccc(c1)CN(C(=O)c1cncc(N(C)C3CCC3)n1)[C@H](CC(C)(C)C)CO2 [II-36]
> 60	< 1000	Cc1cccc(C)c1-c1cc2nc(n1)NS(=O)(=O)c1cccc(c1)C(=O)N(C(=O)c1cncc(N(C)C3CCC3)n1)[C@H](CC(C)(C)C)CO2 [II-32]

Continued, molecule first:

SMILES	Emax [%]	EC50 [nM]
Cc1cccc(C)c1-c1cc2nc(n1)NS(=O)(=O)c1cccc(c1)C(=O)N(Cc1cnc3cc(C(C)C)n(C)c3n1)[C@H](C[C@@H]1CCCO1)CO2 (stereo in doubt) [Compound I-16]	> 60	< 1000
Cc1cccc(C)c1-c1cc2nc(n1)NS(=O)(=O)c1cccc(c1)C(=O)N(Cc1cnc3oc(C(C)C)cc3n1)[C@H](CC(C)(C)F)CO2 [Compound I-35]	> 60	< 1000
Cc1cccc(C)c1-c1cc2nc(n1)NS(=O)(=O)c1cccc(c1)C(=O)N(Cc1nc3cc(C(C)C)oc3cc1F)[C@H](CC(C)(C)C)CO2 [Compound I-63]	> 60	< 1000
Cc1cccc(C)c1-c1cc2nc(n1)NS(=O)(=O)c1cccc(c1)C(=O)N(Cc1cnc3oc(C(C)C)c(C)c3n1)[C@H](CC1CCCC1)CO2 [Compound I-64]	> 60	< 1000
Cc1cccc(C)c1-c1cc2nc(n1)NS(=O)(=O)c1cccc(c1)C(=O)N(Cc1cnc3oc(C4CC4)cc3n1)[C@H](C[C@H]1CCCCO1)CO2 (stereo in doubt) [Compound I-44]	> 60	< 1000
Cc1cccc(C)c1-c1cc2nc(n1)NS(=O)(=O)c1cccc(c1)C(=O)N(Cc1cnc3oc(C4CC4)cc3n1)[C@@H](COC1CCC1)CO2 (stereo in doubt) [Compound I-58]	> 60	< 1000
Cc1cccc(C)c1-c1cc2nc(n1)NS(=O)(=O)c1cccc(c1)C(=O)N(Cc1cnc3oc(C(C)C)cc3n1)[C@H](CCC(C)C)CO2 [Compound I-2]	> 60	< 1000
Cc1cccc(C)c1-c1cc2nc(n1)NS(=O)(=O)c1cccc(c1)C(=O)N(Cc1cnc3oc(C4CC4)cc3n1)[C@H](CC(C)(C)C)CO2 [Compound I-20]	> 60	< 1000
Cc1cccc(C)c1-c1cc2nc(n1)NS(=O)(=O)c1cccc(c1)C(=O)N(Cc1cnc3oc(C(C)C)c(C#N)c3n1)[C@H](CC1(C)CC1)CO2 [Compound I-53, 2-[[(11R)-6-(2,6-dimethylphenyl)-11-[(1-methylcyclopropyl)methyl]-2,2,13-trioxo-9-oxa-2λ^6-thia-3,5,12,19-tetrazatricyclo[12.3.1.14,8]nonadeca-1(18),4(19),5,7,14,16-hexaen-12-yl]methyl]-6-isopropyl-furo[2,3-b]pyrazine-7-carbonitrile]	> 60	< 1000
Cc1cccc(C)c1-c1cc2nc(n1)NS(=O)(=O)c1cccc(c1)C(=O)N(Cc1nc3cc(C(C)C)oc3cc1F)[C@H](CC1(C)CC1)CO2 [Compound I-78]	> 60	< 1000
Cc1cccc(C)c1-c1cc2nc(n1)NS(=O)(=O)c1cccc(c1)C(=O)N(Cc1cnc3oc(C(C)C)c(C)c3n1)[C@H](CCC(C)(C)C)CO2 [Compound I-11]	> 60	< 1000
Cc1cccc(C)c1-c1cc2nc(n1)NS(=O)(=O)c1cccc(c1)C(=O)N(Cc1nc3c(cc1F)cc(C(C)C)n3C)[C@H](CC(C)(C)C)CO2 [Compound I-6]	> 60	< 1000
Cc1cccc(C)c1-c1cc2nc(n1)NS(=O)(=O)c1cccc(c1)C(=O)N(Cc1cnc3oc(C(C)C)c(C)c3n1)[C@H](CCC(C)C)CO2 [Compound I-19]	> 60	< 1000
Cc1cccc(C)c1-c1cc2nc(n1)NS(=O)(=O)c1cccc(c1)C(=O)N(Cc1cnc3oc(C(C)C)cc3n1)[C@H](CC1(C(F)(F)F)CC1)CO2 [Compound I-54]	> 60	< 1000
Cc1cccc(C)c1-c1cc2nc(n1)NS(=O)(=O)c1cccc(c1)C(=O)N(Cc1cnc3cc(C(C)C)n(C)c3n1)[C@H](C[C@H]1CCCCO1)CO2 [Compound I-3]	> 60	< 1000
Cc1cccc(C)c1-c1cc2nc(n1)NS(=O)(=O)c1cccc(c1)C(=O)N(Cc1cnc3oc(C(C)C)c(C)c3n1)[C@H](CC1CCCCC1)CO2 [Compound I-12]	> 60	< 1000
Cc1cccc(C)c1-c1cc2nc(n1)NS(=O)(=O)c1cccc(c1)C(=O)N(Cc1cnc3oc(C(C)C)cc3n1)[C@H](CC1CCOCC1)CO2 [Compound I-30, (11R)-6-(2,6-dimethylphenyl)-12-[(6-isopropylfuro[2,3-b]pyrazin-2-yl)methyl]-2,2-dioxo-11-(tetrahydropyran-4-ylmethyl)-9-oxa-2λ^6-thia-3,5,12,19-tetrazatricyclo[12.3.1.14,8]nonadeca-1(18),4(19),5,7,14,16-hexaen-13-one]	30 to 60	< 1000
Cc1cccc(C)c1-c1cc2nc(n1)NS(=O)(=O)c1cccc(c1)C(=O)N(Cc1cnc3oc(C(C)C)cc3n1)[C@H](CCC(C)(C)F)CO2 (single isomer, unassigned) [Compound I-36]	> 60	< 1000
